Laboratory results from US9708318B2, “Bicyclic heterocycles as FGFR4 inhibitors” (Incyte Corporation, priority 2015, dated 2017).
Read-outs that look alike come from different tables or passages of the source.

What was measured:
FGFR3 enzyme = FGFR3 enzyme (Homo sapiens (Human), UniProt P22607); test: FGFR Enzymatic Assay (FRET peptide phosphorylation), FGFR3; format: biochemical; settings: for FGFR1/FGFR3 IC50 ratio / FGFR4/FGFR3 IC50 ratio: FGFR3 selectivity
Description: (§1) The inhibitor potency of the exemplified compounds was measured in an enzyme assay that measures peptide phosphorylation using FRET measurements to detect product formation. Inhibitors were serially diluted in DMSO and a volume of 0.5 μL was transferred to the wells of a 384-well plate.
(§2) GraphPad prism3 was used to analyze the data.

FGFR4 = FGFR4 (Homo sapiens (Human), UniProt P22455); test: FGFR Enzymatic Assay (FRET peptide phosphorylation), FGFR4; format: biochemical; settings: for FGFR1/FGFR4 IC50 ratio / FGFR2/FGFR4 IC50 ratio / FGFR3/FGFR4 IC50 ratio: FGFR4 selectivity
Chain of FGFR4 (P22455 22-802): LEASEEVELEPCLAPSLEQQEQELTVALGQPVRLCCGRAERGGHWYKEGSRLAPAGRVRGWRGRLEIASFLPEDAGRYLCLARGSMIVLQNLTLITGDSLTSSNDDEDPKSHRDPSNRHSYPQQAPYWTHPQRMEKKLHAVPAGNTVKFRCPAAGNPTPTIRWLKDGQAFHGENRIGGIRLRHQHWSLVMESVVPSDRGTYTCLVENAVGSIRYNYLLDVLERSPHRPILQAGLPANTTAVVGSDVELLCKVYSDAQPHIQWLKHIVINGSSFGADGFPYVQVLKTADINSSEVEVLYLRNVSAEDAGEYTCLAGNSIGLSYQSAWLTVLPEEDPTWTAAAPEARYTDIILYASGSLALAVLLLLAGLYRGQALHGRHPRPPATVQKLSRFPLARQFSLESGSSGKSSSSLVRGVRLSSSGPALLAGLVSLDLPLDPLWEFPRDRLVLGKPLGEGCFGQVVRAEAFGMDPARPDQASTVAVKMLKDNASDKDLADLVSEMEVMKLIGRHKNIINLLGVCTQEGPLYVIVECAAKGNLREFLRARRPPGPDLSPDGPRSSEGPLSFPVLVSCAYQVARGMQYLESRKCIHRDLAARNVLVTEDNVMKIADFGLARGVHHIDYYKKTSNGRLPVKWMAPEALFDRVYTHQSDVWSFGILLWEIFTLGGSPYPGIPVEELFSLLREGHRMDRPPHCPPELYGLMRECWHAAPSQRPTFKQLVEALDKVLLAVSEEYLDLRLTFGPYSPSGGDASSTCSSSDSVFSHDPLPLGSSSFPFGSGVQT
Description: as §1
(§3) The enzymes were purchased from Millipore or Invitrogen.
as §2

FGFR1 = FGFR1 (Homo sapiens (Human), UniProt P11362); test: FGFR Enzymatic Assay (FRET peptide phosphorylation), FGFR1
Chain of FGFR1 (P11362 22-822): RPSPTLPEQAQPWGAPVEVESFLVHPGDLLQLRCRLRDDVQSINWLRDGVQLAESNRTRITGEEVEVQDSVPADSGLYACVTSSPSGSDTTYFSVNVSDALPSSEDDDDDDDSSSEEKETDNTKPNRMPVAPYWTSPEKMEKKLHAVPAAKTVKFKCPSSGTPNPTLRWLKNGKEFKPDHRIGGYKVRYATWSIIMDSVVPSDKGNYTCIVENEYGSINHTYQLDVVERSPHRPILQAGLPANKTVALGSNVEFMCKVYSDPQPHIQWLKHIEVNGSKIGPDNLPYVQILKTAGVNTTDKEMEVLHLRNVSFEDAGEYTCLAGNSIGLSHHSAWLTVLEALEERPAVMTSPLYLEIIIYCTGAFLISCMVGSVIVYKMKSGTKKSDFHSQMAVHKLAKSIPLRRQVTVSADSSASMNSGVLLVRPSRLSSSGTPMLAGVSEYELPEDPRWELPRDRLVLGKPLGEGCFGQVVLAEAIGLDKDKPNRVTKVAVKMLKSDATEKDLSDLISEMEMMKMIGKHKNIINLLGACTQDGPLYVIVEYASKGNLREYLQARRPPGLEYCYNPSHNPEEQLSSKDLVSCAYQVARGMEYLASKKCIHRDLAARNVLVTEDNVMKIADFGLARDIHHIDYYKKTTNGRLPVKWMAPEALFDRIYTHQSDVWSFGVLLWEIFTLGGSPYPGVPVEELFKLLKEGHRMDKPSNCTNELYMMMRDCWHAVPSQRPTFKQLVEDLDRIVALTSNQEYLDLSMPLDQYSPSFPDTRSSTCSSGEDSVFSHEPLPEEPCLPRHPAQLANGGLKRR

FGFR2 = FGFR2 (Homo sapiens (Human), UniProt P21802); test: FGFR Enzymatic Assay (FRET peptide phosphorylation), FGFR2; format: biochemical
Chain of FGFR2 (P21802 22-821): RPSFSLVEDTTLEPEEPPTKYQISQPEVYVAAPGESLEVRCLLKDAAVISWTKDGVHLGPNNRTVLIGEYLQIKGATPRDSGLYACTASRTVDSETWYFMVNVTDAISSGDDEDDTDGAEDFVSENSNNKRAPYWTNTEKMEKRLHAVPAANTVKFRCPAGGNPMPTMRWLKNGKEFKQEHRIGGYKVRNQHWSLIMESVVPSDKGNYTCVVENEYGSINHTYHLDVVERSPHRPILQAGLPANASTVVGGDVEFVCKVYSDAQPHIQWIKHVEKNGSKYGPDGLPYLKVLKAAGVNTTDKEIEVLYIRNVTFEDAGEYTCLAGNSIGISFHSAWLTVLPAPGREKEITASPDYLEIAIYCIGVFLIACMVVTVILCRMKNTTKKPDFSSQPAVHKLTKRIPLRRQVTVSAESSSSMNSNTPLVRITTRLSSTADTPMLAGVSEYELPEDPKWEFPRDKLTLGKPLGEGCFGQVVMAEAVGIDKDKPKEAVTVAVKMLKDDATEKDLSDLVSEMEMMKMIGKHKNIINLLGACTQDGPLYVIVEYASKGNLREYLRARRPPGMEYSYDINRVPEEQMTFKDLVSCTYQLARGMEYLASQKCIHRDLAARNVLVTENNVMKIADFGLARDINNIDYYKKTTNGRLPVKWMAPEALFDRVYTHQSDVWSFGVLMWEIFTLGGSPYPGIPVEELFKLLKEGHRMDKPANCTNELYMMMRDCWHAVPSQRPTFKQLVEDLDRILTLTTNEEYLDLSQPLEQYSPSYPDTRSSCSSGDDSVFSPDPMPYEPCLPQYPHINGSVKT
Description: as §1, §3, §2

[1] = pre-incubated for 5 to 10 minutes, read-out: FGFR3 IC50
[2] = pre-incubated for 4 hours, read-out: FGFR3 IC50
[3] = pre-incubated for 5 to 10 minutes
[4] = FGFR1 IC50 (nM), pre-incubated for 5 to 10 minutes
[5] = read-out: FGFR1 IC50, pre-incubated for 4 hours
[6] = FGFR1 IC50 (nM), pre-incubated for 4 hours
[7] = read-out: FGFR1 IC50, pre-incubated for 5 to 10 minutes

Chain of FGFR3 enzyme (P22607 23-806): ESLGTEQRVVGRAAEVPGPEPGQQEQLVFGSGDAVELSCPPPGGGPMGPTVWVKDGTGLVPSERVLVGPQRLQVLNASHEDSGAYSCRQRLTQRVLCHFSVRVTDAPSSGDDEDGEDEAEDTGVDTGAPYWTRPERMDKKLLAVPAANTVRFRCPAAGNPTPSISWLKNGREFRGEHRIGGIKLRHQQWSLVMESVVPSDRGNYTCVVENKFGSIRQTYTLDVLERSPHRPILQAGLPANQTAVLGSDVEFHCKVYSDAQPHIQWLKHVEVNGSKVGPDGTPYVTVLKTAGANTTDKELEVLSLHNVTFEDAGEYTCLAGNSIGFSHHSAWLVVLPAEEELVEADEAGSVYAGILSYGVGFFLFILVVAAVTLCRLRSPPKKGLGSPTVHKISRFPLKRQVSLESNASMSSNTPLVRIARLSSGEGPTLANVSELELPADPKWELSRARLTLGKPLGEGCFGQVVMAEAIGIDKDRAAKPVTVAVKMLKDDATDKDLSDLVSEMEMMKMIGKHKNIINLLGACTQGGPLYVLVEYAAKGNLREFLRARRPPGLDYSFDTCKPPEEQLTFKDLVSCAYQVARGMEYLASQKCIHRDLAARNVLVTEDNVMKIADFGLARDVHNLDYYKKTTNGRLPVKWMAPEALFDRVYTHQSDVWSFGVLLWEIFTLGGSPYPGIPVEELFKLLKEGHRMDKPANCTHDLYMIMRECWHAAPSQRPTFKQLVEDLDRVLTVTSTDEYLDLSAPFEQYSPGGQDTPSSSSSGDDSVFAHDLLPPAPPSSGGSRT

| FGFR1/FGFR3 IC50 ratio (FGFR3 enzyme; pre-incubated for 4 hours) | FGFR4/FGFR3 IC50 ratio (FGFR3 enzyme; pre-incubated for 4 hours) | IC50 (FGFR3 enzyme; [1]) | IC50 (FGFR3 enzyme; [2]) | IC50 (FGFR4; [3]) | IC50 (FGFR4; pre-incubated for 4 hours) | IC50 (FGFR1; [4]) | IC50 (FGFR1; [5]) | IC50 (FGFR2; [3]) | IC50 (FGFR2; pre-incubated for 4 hours) | IC50 (FGFR1; [6]) | FGFR1/FGFR4 IC50 ratio (FGFR4; [3]) | FGFR2/FGFR4 IC50 ratio (FGFR4; [3]) | FGFR3/FGFR4 IC50 ratio (FGFR4; [3]) | FGFR1/FGFR4 IC50 ratio (FGFR4; pre-incubated for 4 hours) | FGFR2/FGFR4 IC50 ratio (FGFR4; pre-incubated for 4 hours) | FGFR3/FGFR4 IC50 ratio (FGFR4; pre-incubated for 4 hours) | IC50 (FGFR1; [7]) | SMILES | IC50 (FGFR3 enzyme) | IC50 (FGFR1) |
| --- | --- | --- | --- | --- | --- | --- | --- | --- | --- | --- | --- | --- | --- | --- | --- | --- | --- | --- | --- | --- |
| >10 | >10 | 10 to 30 nM | 10 to 30 nM | > 200 nM | 30 to 200 nM | 30 to 200 nM | > 200 nM | 30 to 200 nM | 30 to 200 nM |  |  |  |  |  |  |  |  | COc1cc(OC)c(F)c(N2Cc3cnc(-c4cn(C)nc4C)cc3N(c3ccnnc3)C2=O)c1F [Example 57, 3-(2,6-difluoro-3,5-dimethoxyphenyl)-7-(1,3-dimethyl-1H-pyrazol-4-yl)-1-(pyridazin-4-yl)-3,4-dihydropyrido[4,3-d]pyrimidin-2(1H)-one] |  |  |
| >5 | >3 |  | 10 to 30 nM |  | 30 to 200 nM |  |  |  | 30 to 200 nM | 30 to 200 nM |  |  |  |  |  |  |  | COc1cc(OC)c(F)c(N2Cc3cnc(-c4cn(C)nc4C)cc3N(c3ccc4nc(C)oc4c3)C2=O)c1F [Example 75, 3-(2,6-difluoro-3,5-dimethoxyphenyl)-7-(1,3-dimethyl-1H-pyrazol-4-yl)-1-(2-methylbenzo[d]oxazol-6-yl)-3,4-dihydropyrido[4,3-d]pyrimidin-2(1H)-one] |  |  |
| >3 | >5 |  | < 10 nM |  | 30 to 200 nM |  |  |  | < 10 nM | 10 to 30 nM |  |  |  |  |  |  |  | COc1cc(OC)c(F)c(N2Cc3cnc(-c4cn(C)nc4C)cc3N(c3ccc4cn[nH]c4c3)C2=O)c1F [Example 133, 3-(2,6-difluoro-3,5-dimethoxyphenyl)-7-(1,3-dimethyl-1H-pyrazol-4-yl)-1-(1H-indazol-6-yl)-3,4-dihydropyrido[4,3-d]pyrimidin-2(1H)-one] |  |  |
|  |  | < 10 nM |  | 10 to 30 nM |  |  |  | < 10 nM |  |  |  |  |  |  |  |  | < 10 nM | COc1cc(OC)c(F)c(N2Cc3cnc(-c4cn(C)nc4C)cc3N(Cc3cnn(CC(F)F)c3)C2=O)c1F [Example 128, 3-(2,6-difluoro-3,5-dimethoxyphenyl)-1-((1-(2,2-difluoroethyl)-1H-pyrazol-4-yl)methyl)-7-(1,3-dimethyl-1H-pyrazol-4-yl)-3,4-dihydropyrido[4,3-d]pyrimidin-2(1H)-one] |  |  |

The remaining lines, values behind:

| SMILES | FGFR1/FGFR3 IC50 ratio (FGFR3 enzyme; pre-incubated for 4 hours) | FGFR4/FGFR3 IC50 ratio (FGFR3 enzyme; pre-incubated for 4 hours) | IC50 (FGFR3 enzyme; [1]) | IC50 (FGFR3 enzyme; [2]) | IC50 (FGFR4; [3]) | IC50 (FGFR4; pre-incubated for 4 hours) | IC50 (FGFR1; [4]) | IC50 (FGFR1; [5]) | IC50 (FGFR2; [3]) | IC50 (FGFR2; pre-incubated for 4 hours) | IC50 (FGFR1; [6]) | FGFR1/FGFR4 IC50 ratio (FGFR4; [3]) | FGFR2/FGFR4 IC50 ratio (FGFR4; [3]) | FGFR3/FGFR4 IC50 ratio (FGFR4; [3]) | FGFR1/FGFR4 IC50 ratio (FGFR4; pre-incubated for 4 hours) | FGFR2/FGFR4 IC50 ratio (FGFR4; pre-incubated for 4 hours) | FGFR3/FGFR4 IC50 ratio (FGFR4; pre-incubated for 4 hours) | IC50 (FGFR1; [7]) | IC50 (FGFR3 enzyme) | IC50 (FGFR1) |
| --- | --- | --- | --- | --- | --- | --- | --- | --- | --- | --- | --- | --- | --- | --- | --- | --- | --- | --- | --- | --- |
| COc1cc(OC)c(F)c(N2Cc3cnc(-c4cn(C)nc4C)cc3N(c3ccc4ccncc4c3)C2=O)c1F [Example 63, 3-(2,6-difluoro-3,5-dimethoxyphenyl)-7-(1,3-dimethyl-1H-pyrazol-4-yl)-1-(isoquinolin-7-yl)-3,4-dihydropyrido[4,3-d]pyrimidin-2(1H)-one] | >10 | >5 |  | < 10 nM |  | 30 to 200 nM |  |  |  | 10 to 30 nM | 30 to 200 nM |  |  |  |  |  |  |  |  |  |
| COc1cc(OC)c(F)c(N2Cc3cnc(-c4cnn(CCN5CCC(OC)C5)c4)cc3C3(CC3)C2=O)c1F (centres unmarked) [Example 161, 2′-(2,6-difluoro-3,5-dimethoxyphenyl)-6′-(1-(2-(3-methoxypyrrolidin-1-yl)ethyl)-1H-pyrazol-4-yl)-1′H-spiro[cyclopropane-1,4′-[2,7]naphthyridin]-3′(2′H)-one] | >5 | >3 |  | < 10 nM |  | 10 to 30 nM |  |  |  | < 10 nM | 10 to 30 nM |  |  |  |  |  |  |  |  |  |
| COC(=O)N1CCC(N2C(=O)N(c3c(F)c(OC)cc(OC)c3F)Cc3cnc(-c4cn(C)nc4C)cc32)CC1 [Example 122, Methyl 4-(3-(2,6-difluoro-3,5-dimethoxyphenyl)-7-(1,3-dimethyl-1H-pyrazol-4-yl)-2-oxo-3,4-dihydropyrido[4,3-d]pyrimidin-1(2H)-yl)piperidine-1-carboxylate] | >5 | >5 |  |  |  | 30 to 200 nM |  |  |  | 10 to 30 nM |  |  |  |  |  |  |  |  | 10 to 30 nM | 30 to 200 nM |
| COc1cc(OC)c(F)c(N2Cc3cnc(-c4ccc(C5(C#N)CCC5)nc4)cc3N(Cc3nnc(C)o3)C2=O)c1F [Example 187, 1-(5-{3-(2,6-difluoro-3,5-dimethoxyphenyl)-1-[(5-methyl-1,3,4-oxadiazol-2-yl)methyl]-2-oxo-1,2,3,4-tetrahydropyrido[4,3-d]pyrimidin-7-yl}pyridin-2-yl)cyclobutanecarbonitrile] | >10 | >10 | < 10 nM | < 10 nM | 30 to 200 nM | 30 to 200 nM | 10 to 30 nM |  | < 10 nM | < 10 nM | 30 to 200 nM |  |  |  |  |  |  |  |  |  |
| COc1cc(OC)c(F)c(N2Cc3cnc(-c4cc(N)cnc4C)cc3C3(CC3)C2=O)c1F [Example 7, 6′-(5-amino-2-methylpyridin-3-yl)-2′-(2,6-difluoro-3,5-dimethoxyphenyl)-1′H-spiro[cyclopropane-1,4′-[2,7]naphthyridin]-3′(2′H)-one] | >1 |  | > 200 nM | > 200 nM | 30 to 200 nM | 30 to 200 nM |  | > 200 nM | > 200 nM | > 200 nM |  | >25 | >10 | >10 | >50 | >25 | >25 | > 200 nM |  |  |
| COc1cc(OC)c(F)c(N2Cc3cnc(-c4ccccc4)cc3C3(CC3)C2=O)c1F [Example 17, 2′-(2,6-difluoro-3,5-dimethoxyphenyl)-6′-phenyl-1′H-spiro[cyclopropane-1,4′-[2,7]naphthyridin]-3′(2′H)-one] | >10 |  |  | 10 to 30 nM |  | 10 to 30 nM |  | > 200 nM |  | 30 to 200 nM |  |  |  |  |  |  |  |  |  |  |
| COc1cc(OC)c(F)c(N2Cc3cnc(-c4cncc(-n5ccnc5)c4)cc3C3(CC3)C2=O)c1F [Example 12, 6′-(5-(1H-imidazol-1-yl)pyridin-3-yl)-2′-(2,6-difluoro-3,5-dimethoxyphenyl)-1′H-spiro[cyclopropane-1,4′-[2,7]naphthyridin]-3′(2′H)-one] | >3 |  | 30 to 200 nM | 30 to 200 nM | < 10 nM | < 10 nM |  | > 200 nM | 30 to 200 nM | 30 to 200 nM |  | >50 | >25 | >20 | >50 | >25 | >10 | > 200 nM |  |  |
| COc1cc(OC)c(F)c(N2Cc3cnc(-c4cn(C)nc4C)cc3N(c3ccc(CC#N)cc3)C2=O)c1F [Example 97, 2-(4-(3-(2,6-difluoro-3,5-dimethoxyphenyl)-7-(1,3-dimethyl-1H-pyrazol-4-yl)-2-oxo-3,4-dihydropyrido[4,3-d]pyrimidin-1(2H)-yl)phenyl)acetonitrile] | >5 | >10 |  | < 10 nM |  | 30 to 200 nM |  |  |  | < 10 nM | 30 to 200 nM |  |  |  |  |  |  |  |  |  |
